Source: patent US9642870B2, “Composition for preventing or alleviating atopic dermatitis comprising immunosuppressant and transglutaminase 2 inhibitor” (Dongguk University Industry-Academic Cooperation Foundation, priority 2011, dated 2017)

What was measured:
IgE = experiment: Total serum IgE (ELISA); format: in vivo, mice; details: administered alone, compared with the control
Description: Since the major symptoms of atopic dermatitis were associated with strong Th2 immune response, IgE was produced at an excessive amount. Therefore, either glucosamine or tacrolimus was administered alone to the atopy-induced mice, or glucosamine and tacrolimus were administered in combination to measure a level of IgE in the serum. After one week had elapsed after the final administration, sera were obtained from the mice, and a total level of IgE was measured using an ELISA kit (Yamasa, Tokyo, Japan).

[1] = in vivo
[2] = system: severe atopic dermatitis patients; experiment: Clinical test: objective SCORAD index in atopic dermatitis patients; details: FIG. 17
IFN-g, IL-4, IL-5 = experiment: Immunosuppressive effects of immunosuppressants administered alone (IFN-g, IL-4, IL-5 concentrations); format: cell-based; details: FIGS. 24 to 26
From the text: Further, immunosuppressive effects according to the kinds of immunosuppressants were further confirmed through experiments conducted to determine a proper dosage concentration.

[3] = Minimum and maximum doses from experiments conducted at a cell level; format: cell-based; details: no difference in inhibition level

| blood glucosamine concentrations, animals versus humans [1] | SMILES | total level of IgE in the serum (IgE) | change in SCORAD indexes ([2]; glucosamine administered alone, November 10 to November 24) | therapeutic effect (SCORAD indexes), summary ([2]; single versus combined administration) | immunosuppressive effect (changes in concentrations of IFN-g, IL-4, IL-5) (IFN-g, IL-4, IL-5) | dose required relative to cyclosporine [3] |
| --- | --- | --- | --- | --- | --- | --- |
| no significant difference | N[C@H]1C(O)O[C@H](CO)[C@@H](O)[C@@H]1O (stereo partly shown) [glucosamine] | no clear difference | no change | poor therapeutic effect | – | – |
| – | C=CC[C@@H]1/C=C(\C)C[C@H](C)C[C@H](OC)[C@H]2O[C@@](O)(C(=O)C(=O)N3CCCC[C@H]3C(=O)O[C@H](/C(C)=C/[C@@H]3CC[C@@H](O)[C@H](OC)C3)[C@H](C)[C@@H](O)CC1=O)[C@H](C)C[C@@H]2OC [tacrolimus] | no clear difference | – | – | suppressed an immune response | lower dose than cyclosporine by a factor of 10 |
